Measurements as given in US20110217265A1, “Screening for Inhibitors of HCV Amphipathic Helix (AH) Function” (priority 2008, published 2011).

Tests used:
HCV 1b RNA replicon = experiment: 1b HCV RNA replicon assay, Huh7 cell line with stable luciferase reporter; type: cell-based, Hepatitis C Virus genotype 1b; settings: Huh7, stable LUC reporter
Huh7.5 cells = experiment: Alamar Blue cell viability assay; type: cell-based, human
Description: Antiviral Assays of Compounds. Subconfluent Huh7.5 cells were trypsinized and collected by centrifugation at 700 g for 5 min. The cells were then washed three times in ice-cold RNasefree PBS buffer (BioWhittaker) and resuspended at 1.5×10^7 cells·ml^−1 in PBS buffer. Wild-type FL-J6/JFH-5′C19Rluc2AUbi and Bart79I-luc RNAs for electroporation were generated by in vitro transcription of XbaI (FL-J6/JFH-5′C19Rluc2AUbi) and ScaI (Bart791-luc)-linearized DNA templates using the T7 MEGAscript kit (Ambion), followed by phenol-chloroform purification and DEPC water suspension, 5 μg of RNA were mixed with 400 μl of washed Huh7.5 cells in a 2-mm-gap cuvette (BTX) and immediately pulsed (0.82 kV (FL-J6/JFH-5′C19Rluc2AUbi) and 0.68 kV (Bart79I-luc), five […] pulses) with a BTX-830 electroporator. After 10 min recovery at 25° C., pulsed cells were diluted into 20 ml of pre-warmed growth medium. Cells from several electroporations were pooled to a common stock and seeded in 96-well plates (17,000-20,000 cells per well). After 24 hr, compounds were added to the cells and media changes were performed daily with fresh compounds. After 72 hr of treatment, cells were incubated for 2 hr at 37° C. in the presence of 10% Alamar Blue reagent (TREK Diagnostic Systems) to assess for cytotoxicity. […] The signal was normalized relative to untreated samples. Viral RNA replication was determined using Renilla (FL-J6/JFH-5′C19Rluc2AUbi) or firefly (Bart791-luc) luciferase assays, according to the manufacturer's (Promega) directions. The same samples subjected to the viability assay described below were analyzed in this assay. According to the manufacturer protocol, cells were washed with PBS buffer and shaken at room temperature for 15 min in 20 μl of lysis buffer. Reporter assays were performed directly in the wells of the culture plates by injecting 100 μl of the assay substrate into each well. Luminescence was measured over 10 seconds with a 2-second delay using a Berthold LB 96 V luminometer. Signal was normalized relative to untreated samples or samples grown in the presence of the corresponding concentration of DMSO. Experiments were repeated three times, each time with 4 replicates.

2a HCV RNA replicon = 2a HCV RNA replicon assay (FL-J6/JFH-5'C19Rluc2AUbi, luciferase); type: cell-based, Hepatitis C Virus genotype 2a; settings: Hepatitis C virus, read-out: 2a (%) Percent of virus activity remaining in the presence of the compound
From the text: Plasmids. Bart79I, a high-efficiency subgenomic replicon of HCV (28), harbors the neomycin resistance gene (neo) and the HCV nonstructural proteins. The Bart-Luciferase plasmid, Bart79I-luc, was cloned from the Bart791 parent (29) and the pGL3-Basic parent (Promega). In brief, a NotI site was introduced after the 15th amino acid of Core in Bart791 using PCR mutagenesis. The plasmid pcDNA3.1-NS4B, which encodes the Con1 NS4B sequence and was used to study the protein stability of the wild type and mutant NS4Bs, was described previously. To introduce the M2 mutation into the 4BAH2 of plasmids encoding HCV replicons or NS4B, the nucleotide sequence GCG that encodes for alanine at NS4B amino acid position 51 was changed to GAG (encoding for glutamate) and the nucleotide sequence TGG that encodes for tryptophan at amino acid position 55 was changed to GAT (encoding for aspartate) through the use of Quick-ChangeTMXL site-directed mutagenesis kit (Stratagene, La Jolla, Calif.) as described by the manufacturer and confirmed by sequencing. FL-J6/JFH-5′C19Rluc2AUbi, which is a monocistronic, full-length HCV genome that expresses Renilla luciferase (Rluc) and was derived from the previously described infectious genotype 2a HCV genome J6/JFH1.
Antiviral Assays of Compounds. Subconfluent Huh7.5 cells were trypsinized and collected by centrifugation at 700 g for 5 min. The cells were then washed three times in ice-cold RNasefree PBS buffer (BioWhittaker) and resuspended at 1.5×10^7 cells·ml^−1 in PBS buffer. Wild-type FL-J6/JFH-5′C19Rluc2AUbi and Bart79I-luc RNAs for electroporation were generated by in vitro transcription of XbaI (FL-J6/JFH-5′C19Rluc2AUbi) and ScaI (Bart791-luc)-linearized DNA templates using the T7 MEGAscript kit (Ambion), followed by phenol-chloroform purification and DEPC water suspension, 5 μg of RNA were mixed with 400 μl of washed Huh7.5 cells in a 2-mm-gap cuvette (BTX) and immediately pulsed (0.82 kV (FL-J6/JFH-5′C19Rluc2AUbi) and 0.68 kV (Bart79I-luc), five […] pulses) with a BTX-830 electroporator. After 10 min recovery at 25° C., pulsed cells were diluted into 20 ml of pre-warmed growth medium. Cells from several electroporations were pooled to a common stock and seeded in 96-well plates (17,000-20,000 cells per well). After 24 hr, compounds were added to the cells and media changes were performed daily with fresh compounds. After 72 hr of treatment, cells were incubated for 2 hr at 37° C. in the presence of 10% Alamar Blue reagent (TREK Diagnostic Systems) to assess for cytotoxicity. Plates were then scanned and fluorescence was detected by using a FLEXstation II 384 (Molecular Devices). The signal was normalized relative to untreated samples. Viral RNA replication was determined using Renilla (FL-J6/JFH-5′C19Rluc2AUbi) or firefly (Bart791-luc) luciferase assays, according to the manufacturer's (Promega) directions. The same samples subjected to the viability assay described below were analyzed in this assay. According to the manufacturer protocol, cells were washed with PBS buffer and shaken at room temperature for 15 min in 20 μl of lysis buffer. Reporter assays were performed directly in the wells of the culture plates by injecting 100 μl of the assay substrate into each well. Luminescence was measured over 10 seconds with a 2-second delay using a Berthold LB 96 V luminometer. Signal was normalized relative to untreated samples or samples grown in the presence of the corresponding concentration of DMSO. Experiments were repeated three times, each time with 4 replicates.

SMILES | 1b assay IC50 (HCV 1b RNA replicon) | Cell Viability (%), alamar blue (Huh7.5 cells; 5 μM) | Cell Viability (%), alamar blue (Huh7.5 cells; 10 μM) | activity at 5 µM (2a HCV RNA replicon) | activity at 10 µM (2a HCV RNA replicon) | IC50 (HCV 1b RNA replicon; Hepatitis C virus, Huh-7)
CC(C)CN(C)c1nc(N)c(C(=O)NCc2ccccc2)nc1Cl [ID 292, 3-amino-N-benzyl-6-chloro-5-(isobutyl(methyl)amino)pyrazine-2-carboxamide 2,2,2-trifluoroacetate] | inactive | 80% | 62% | 39% | 25% | –
Cc1cc(Cl)ncc1NC(=O)c1nc(Cl)c(N(C)CC(C)C)nc1N [ID 293, 3-amino-6-chloro-N-(6-chloro-4-methylpyridin-3-yl)-5-(isobutyl(methyl)amino)pyrazine-2-carboxamide bis(2,2,2-trifluoroacetate)] | inactive | 71% | 66% | 34% | 28% | –
Cc1cc(F)ncc1NC(=O)c1nc(Cl)c(N(C)CC(C)C)nc1N [ID 297, 3-amino-6-chloro-N-(6-fluoro-4-methylpyridin-3-yl)-5-(isobutyl(methyl)amino)pyrazine-2-carboxamide bis(2,2,2-trifluoroacetate)] | – | 94% | 67% | 58% | 16% | –
CC(C)CN(C)c1nc(N)c(C(=O)NC2CCCCC2)nc1Cl.O=C(O)C(F)(F)F [ID 313, 3-amino-6-chloro-N-cyclohexyl-5-(isobutyl(methyl)amino)pyrazine-2-carboxamide 2,2,2-trifluoroacetate] | – | 68% | 48% | 33% | 12% | > 25 µM
COC(=O)c1cccc(NC(=O)c2nc(Cl)c(N(C)CC(C)C)nc2N)c1.O=C(O)C(F)(F)F [ID 343, methyl 3-(3-amino-6-chloro-5-(isobutyl(methyl)amino)pyrazine-2-carboxamido)benzoate 2,2,2-trifluoroacetate] | – | 98% | 93% | 65% | 38% | –
Cc1ccncc1NC(=O)c1cnc(N(C)CC(C)C)cn1 [ID 414, 5-(isobutyl(methyl)amino)-N-(4-methylpyridin-3-yl)pyrazine-2-carboxamide 2,2,2-trifluoroacetate] | – | 100% | 90% | 60% | 53% | –
Cc1ccncc1NC(=O)c1nc(Cl)c(N2CCOCC2)nc1N [ID 419, 3-amino-6-chloro-N-(4-methylpyridin-3-yl)-5-morpholinopyrazine-2-carboxamide 2,2,2-trifluoroacetate] | – | 95% | 77% | 75% | 51% | –
Cc1ccncc1NC(=O)c1nc(Cl)c(N2CCCC2)nc1N [ID 420, 3-amino-6-chloro-N-(4-methylpyridin-3-yl)-5-(pyrrolidin-1-yl)pyrazine-2-carboxamide 2,2,2-trifluoroacetate] | – | 73% | 72% | 52% | 49% | –
Cc1ccncc1NC(=O)c1nc(Cl)c(N(C)Cc2ccccc2)nc1N [ID 424, 3-amino-5-(benzyl(methyl)amino)-6-chloro-N-(4-methylpyridin-3-yl)pyrazine-2-carboxamide 2,2,2-trifluoroacetate] | – | 98% | 78% | 70% | 39% | –
Cc1ccncc1NC(=O)c1cnc(N(C)C(C)C)cn1 [ID 459, 5-(isopropyl(methyl)amino)-N-(4-methylpyridin-3-yl)pyrazine-2-carboxamide 2,2,2-trifluoroacetate] | – | 64% | 65% | 22% | 11% | –
CCN(CC)c1nc(N)c(C(=O)Nc2cnccc2C)nc1Cl [ID 460, 3-amino-6-chloro-5-(diethylamino)-N-(4-methylpyridin-3-yl)pyrazine-2-carboxamide 2,2,2-trifluoroacetate] | – | 85% | 73% | 45% | 22% | –
CCN(C)c1nc(N)c(C(=O)Nc2cnccc2C)nc1Cl [ID 469, 3-amino-6-chloro-5-(ethyl(methyl)amino)-N-(4-methylpyridin-3-yl)pyrazine-2-carboxamide 2,2,2-trifluoroacetate] | – | 75% | 71% | 65% | 42% | –
Cc1ccncc1NC(=O)c1cnc(N(C)CC(C)C)c(Cl)n1 [ID 473, 6-chloro-5-(isobutyl(methyl)amino)-N-(4-methylpyridin-3-yl)pyrazine-2-carboxamide 2,2,2-trifluoroacetate] | – | 94% | 95% | 87% | 73% | –
